Laboratory results published in patent publication US20040259244A1, “Methods, compositions, and growth and differentiation factors for insulin-producing cells” (priority 2002, published 2004).
Like-named read-outs stand apart in the source and are kept apart here. Square brackets hold non-standard residues; d marks the D form. Ends that are not written are not given here. sY = N[C@@H](Cc1ccc(OS(=O)(=O)O)cc1)C(=O)O

Test system: conversion of stem cells into insulin producing cells
Type: cell-based
[1] = statistical analysis of insulin content of supernatants, 3 donors, combinatorial array in alginate

| Compound | effect on the conversion of stem cells into insulin producing cells [1] | effect on the conversion of stem cells into insulin producing cells |
| --- | --- | --- |
| CC[C@H](C)[C@@H]1NC(=O)[C@H](CCCNC(=N)N)NC(=O)[C@H](CC(=O)O)NC(=O)[C@H](CCSC)NC(=O)[C@H](CCCNC(=N)N)NC(=O)CNC(=O)CNC(=O)[C@H](Cc2ccccc2)NC(=O)[C@@H](NC(=O)[C@H](CO)NC(=O)[C@H](CO)NC(=O)[C@H](CCCNC(=N)N)NC(=O)[C@H](CCCNC(=N)N)NC(=O)[C@H](CC(C)C)NC(=O)[C@@H](N)CO)CSSC[C@@H](C(=O)N[C@@H](CC(N)=O)C(=O)N[C@@H](CO)C(=O)N[C@@H](Cc2ccccc2)C(=O)N[C@@H](CCCNC(=N)N)C(=O)N[C@@H](Cc2ccc(O)cc2)C(=O)O)NC(=O)CNC(=O)[C@H](CC(C)C)NC(=O)CNC(=O)[C@H](CO)NC(=O)[C@H](CCC(N)=O)NC(=O)[C@H](C)NC(=O)CNC1=O [ANP] | potential negative effect |  |
| C[C@]12C[C@H](O)[C@H]3[C@@H](CCC4=CC(=O)CC[C@@]43C)[C@@H]1CC[C@@H]2C(=O)CO [Corticosterone] | potential positive effect |  |
| CCCCCC(=O)c1c(O)c(Cl)c(OC)c(Cl)c1O [DIF-1] | potential negative effect |  |
| CN(C)C=O [DMF, n-n-dimethylformamide] | potential positive effect |  |
| C[S+](C)[O-] [DMSO, dimethyl sulfoxide] | potential positive effect |  |
| NC(=O)c1cccnc1 [Nictotinamide, Nicotinamide] | potential positive effect |  |
| CC(=O)[C@H]1CC[C@H]2[C@@H]3CCC4=CC(=O)CC[C@]4(C)[C@H]3CC[C@]12C [Progesterone] | potential negative effect |  |
| NCCCCN [Putrescine] | potential negative effect |  |
| N[C@@H](Cc1cc(I)c(Oc2ccc(O)c(I)c2)c(I)c1)C(=O)O [T3, Triiodothyronine] | potential negative effect |  |
| Cc1c(C)c2c(c(C)c1O)CCC(C)(C(=O)O)O2 (stereo not drawn) [Trolox] | potential negative effect |  |
| CCCC(=O)[O-].[Na+] [n Butyric Acid] | potential negative effect |  |
| CCK8 amide: Cholecystokinin (CCK8-amide) (DYMGWMDF-NH2; ends and bridges not checked; UniProt P06307 96-103, looked up) | potential negative effect |  |
| CCK8 sulfated: Cholecystokinin octapeptide, sulfated (D[sY]MGWMDF-NH2; ends and bridges not checked; UniProt P06307 96-103, looked up) | potential positive effect |  |
| CNP: A 22-amino acid peptide that is a member of the natriuretic peptide family (GLSKGCFGLKLDRIGSMSGLGC; ends and bridges not checked; cysteine pairing not given here; UniProt P23582 105-126, looked up) | potential positive effect |  |
| Caerulein | potential positive effect |  |
| Cholera Toxin B Subunit |  | potential positive effect |
| EGF: epidermal growth factor (NSDSECPLSHDGYCLHDGVCMYIEALDKYACNCVVGYIGERCQYRDLKWWELR; UniProt P01133 971-1023, looked up) | potential positive effect |  |
| Endothelin 1: polypeptide consisting of 21 amino acid residues (CSCSSLMDKECVYFCHLDIIW; ends and bridges not checked; cysteine pairing not given here; UniProt P05305 53-73, looked up) | potential negative effect |  |
| Exendin 4: a long acting analog of GLP-1 | potential positive effect |  |
| FGF-1: FGF acidic | potential positive effect |  |

| Compound | effect on the conversion of stem cells into insulin producing cells [1] | effect on the conversion of stem cells into insulin producing cells |
| --- | --- | --- |
| FGF-2: fibroblast growth factor 2 (FGF-basic) | potential negative effect |  |
| GH: growth hormone | potential negative effect |  |
| GLP-1: Glucagon like-peptide 1, (7-36) amide, human (HAEGTFTSDVSSYLEGQAAKEFIAWLVKGR-NH2; UniProt P01275 98-127, looked up) | potential negative effect |  |
| GRP: Gastrin Releasing Peptide (VPLPAGGGTVLTKMYPRGNHWAVGHLM; ends and bridges not checked; UniProt P07492 24-50, looked up) | potential positive effect |  |
| HGF: hepatocyte growth factor | potential negative effect |  |
| IGF-1: Insulin-like growth factor-I | potential positive effect |  |
| IGF-2: Insulin-like growth factor 2 | potential positive effect |  |
| Insulin: Insulin as medium supplement | potential positive effect |  |
| LIF: leukemia inhibitory factor, human | potential negative effect |  |
| Laminin | potential positive effect |  |
| Leu-Enkephalin: Natural opiate pentapeptide (YGGFL) (Leu-enkephalin; UniProt P01210 230-234, looked up) | potential positive effect |  |
| Met-Enkephalin | potential positive effect |  |
| NGF beta: Nerve growth factor | potential positive effect |  |
| Substance P: neuropeptide, full length (RPKPQQFFGLM; ends and bridges not checked; UniProt P20366 58-68, looked up) | potential positive effect |  |
| TGF alpha: Transforming growth factor alpha | potential negative effect |  |
| TGF beta 1: Transforming growth factor beta 1 | potential negative effect |  |
| Transferrin: a beta globulin in blood plasma capable of combining with ferric ions | potential positive effect |  |
| VIP: Vasoactive Intestinal Peptide (HSDAVFTDNYTRLRKQMAVKKYLNSILN; ends and bridges not checked; UniProt P01282 125-152, looked up) | potential positive effect |  |
| vEGF | potential positive effect |  |
